This assay addresses T1, IFNγ receptor subunit 1 (IFNγR1) (Mus musculus, UniProt P15261).
T1 construct: gene Ifngr1; synthetic Wt IFNγR1 peptide, CRAC motif, residues 269 to 280 ([…])
Description: SPR (BIAcore […], L1 chip) of peptide over immobilized phosphatidylcholine/cholesterol liposomes. Type of assay: binding. (In general: Surface plasmon resonance follows binding to a sensor surface in real time, without labels.)

In turn, `CC(C)CCC[C@@H](C)[C@H]1CC[C@H]2[C@@H]3CC=C4C[C@@H](O)CC[C@]4(C)[C@H]3CC[C@]12C` [cholesterol] yielded a Kd of 4.27 nM.

As usually defined, the Kd is the equilibrium constant for the complex coming apart. A high value points to a looser complex.

The record behind these values is publication PMC3169561, “Restoration of IFNγR Subunit Assembly, IFNγ Signaling and Parasite Clearance in Leishmania donovani Infected Macrophages: Role of Membrane Cholesterol” (PLoS Pathogens, 2011).
